Laboratory results published in patent publication US5391540A, “Substituted pyridine compounds” (Rohm and Haas Company, priority 1993, dated 1995).

Experiments:
Type in all cases: in vivo
[1] = tested on: Hese; test: plant injury after spraying emerged plants (Table D); design: scale not given here
Procedure, shortened: (§1)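 Seeds or vegetative propagules of annual and perennial species were pressed into steam-sterilized silt loam, covered with 1.27 cm of topsoil/peat-moss/vermiculite mix, and grown on greenhouse benches with subirrigation. Injury was scored on emerged plants after spraying.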

[2] = tested on: Wibw; test: as above; design: scale not given here
Procedure, shortened: as §1

[3] = tested on: Vele; test: as above; design: scale not given here
Procedure, shortened: as §1

[4] = tested on: Seedling Johnsongrass; test: Pre-emergent herbicidal activity (Table A); settings: Sorghum halepense, pre-emergence, Sejg, 11.2 kg/ha, 10-14 days, read-out: herbicidal rating (% inhibition)
Procedure, shortened: (§2)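 Compound incorporated into the cover-soil layer over sown seed at a rate equivalent to 11.2 kg/ha (acetone or water carrier). Greenhouse growth with watering as needed; ratings reflect percent inhibition per species, recorded around day 11 (range 10–14).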

[5] = tested on: Annual Bluegrass; test: Pre-emergent herbicidal activity (Table A); settings: pre-emergence, Anbg, 11.2 kg/ha, 10-14 days, read-out: herbicidal rating (% inhibition)
Procedure, shortened: as §2

[6] = tested on: Wild Buckwheat; test: Pre-emergent herbicidal activity (Table A); settings: Fallopia convolvulus, pre-emergence, Wibw, 11.2 kg/ha, 10-14 days, read-out: herbicidal rating (% inhibition)
Procedure, shortened: as §2

[7] = tested on: Indian Mustard; test: Pre-emergent herbicidal activity (Table A); settings: Brassica juncea, pre-emergence, Inmu, 11.2 kg/ha, 10-14 days, read-out: herbicidal rating (% inhibition)
Procedure, shortened: as §2

[8] = tested on: Rape; test: plant injury after spraying emerged plants (Table D); design: scale not given here
Description: (§3) Topsoil (silt loam) is sieved through a screen having 1.27 cm openings. In some of the tests the soil was mixed with fertilizer (1225 g/cu. m of 12/5/9 containing isobutylidene diurea), while in other tests the fertilizer was omitted. This mixture is steam sterilized and then placed in aluminum pans 6.985 cm deep having ten holes in the bottom each 0.635 cm in diameter. The soil mixture is compacted to a depth of 1.27 cm. from the top of the pan. A predetermined number of seeds of each of several dicotyledonous and monocotyledonous annual plant species and/or vegetative propagules for the perennial plant species are placed on the soil and pressed into the soil surface. The seeds and/or vegetative propagules are covered with 1.27 cm of a mixture of 50% topsoil and 50% of a mixture of Canadian sphagnum peat moss, vermiculite and a wetting agent. The pans are then placed on a capillary mat on a greenhouse bench and subirrigated as needed. After the plants reach the desired stage (9 to 14 days, 1 to 3 true leaf stage), each pan (except the control pans) is removed to a spraying chamber and sprayed by means of an atomizer, operating at a spray pressure of 170.3 kPa ([…]) at the application rates noted in Table D. In the spray solution is an amount of an emulsifying agent mixture (35% butylamine salt of dodecylbenzenesulfonic acid and 65% tall oil condensed with ethylene oxide in the ratio of 11 mols of ethylene oxide/mol of tall oil) to give a spray solution or suspension. The spray solution or suspension contains a sufficient amount of the candidate chemical in order to give application rates of the active ingredient corresponding to those shown in Table D below while applying a total amount of solution or suspension equivalent to 1870 L/Ha (200 gallons/acre). The pans are returned to the greenhouse and watered as before and the injury to the plants as compared to the control pans is observed at approximately 10-14 days (usually 11 days).
(§4) In the following Table D the legends used to identify the plant species are the same as those used in the preceding Table B.

[9] = tested on: Cotz; test: as above; design: scale not given here
Description: as §3, §4

[10] = tested on: Velvetleaf; test: Pre-emergent herbicidal activity (Table A); settings: Abutilon theophrasti, pre-emergence, Vele, 11.2 kg/ha, 10-14 days, read-out: herbicidal rating (% inhibition)
Procedure, shortened: (§5)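 Seeds or perennial propagules set on compacted topsoil, then covered with soil mixed with a known amount of test compound applied in acetone or water carrier. Ratings assigned on a scale based on percent inhibition of each species.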

[11] = tested on: Barnyardgrass; test: Pre-emergent herbicidal activity (Table A); settings: Echinochloa crus-galli, pre-emergence, Bygr, 11.2 kg/ha, 10-14 days, read-out: herbicidal rating (% inhibition)
Procedure, shortened: as §5

Structure (SMILES)	plant injury rating, Hese ([1]; 0.2803 kg/ha)	plant injury rating, Hese ([1]; 1.1210 kg/ha)	plant injury rating, Hese ([1]; 5.6050 kg/ha)	plant injury rating, Wibw ([2]; 0.2803 kg/ha)	plant injury rating, Wibw ([2]; 1.1210 kg/ha)	plant injury rating, Wibw ([2]; 5.6050 kg/ha)	plant injury rating, Vele ([3]; 0.2803 kg/ha)	plant injury rating, Vele ([3]; 1.1210 kg/ha)	plant injury rating, Vele ([3]; 5.6050 kg/ha)	inhibition at 11200 g/ha [4] [%]	inhibition at 11200 g/ha [5] [%]	inhibition at 11200 g/ha [6] [%]	inhibition at 11200 g/ha [7] [%]	plant injury rating, Rape ([8]; 0.2803 kg/ha)	plant injury rating, Rape ([8]; 1.1210 kg/ha)	plant injury rating, Rape ([8]; 5.6050 kg/ha)	plant injury rating, Cotz ([9]; 0.2803 kg/ha)	plant injury rating, Cotz ([9]; 5.6050 kg/ha)	inhibition at 11200 g/ha [10] [%]	inhibition at 11200 g/ha [11] [%]	further results
COC(=O)c1c(OC)nc(C(F)(F)F)c(C(=O)SC)c1C1CCC1 [Compound 137, 3-pyridinecarboxylic acid, 4-cyclobuty1-2-methoxy-5-[(methylthio)carbonyl]-6-(trifluoromethyl)-, methyl ester]	1	3	3	0	3	2	3	3	2	75 to 100	75 to 100	75 to 100	75 to 100	3	3	3	1	2	75 to 100	75 to 100	plant injury rating, Cotz ([9]; 1.1210 kg/ha): 2
COC(=O)c1c(OC)nc(C(F)(F)F)c(N=CSC)c1CC(C)C [Compound 77, 3-pyridinecarboxylic acid, 2-methoxy-4-(2-methylpropyl)-5-[[(methylthio)methylene]amino]-6-(trifluoromethyl)-, methyl ester]	–	–	–	–	–	–	–	–	–	–	–	–	–	–	–	–	–	–	75 to 100	75 to 100	–
COC(=O)c1c(OC)nc(C(F)(F)F)c(C(=O)Cl)c1CC1CC1 [Compound 113, 3-pyridinecarboxylic acid, 5-(chlorocarbonyl)-4-(cyclopropylmethyl)-2-methoxy-6-(trifluoromethyl)-, methyl ester]	0	0	1	0	0	1	0	0	1	75 to 100	75 to 100	25 to 49	0 to 24	0	0	1	0	0	25 to 49	75 to 100	plant injury rating, Cotz ([9]; 1.1210 kg/ha): 0
COC(=O)c1c(O)nc(C(F)(F)F)c(C(=O)OC)c1CC(C)C [Compound 1, 3,5-pyridinedicarboxylic acid, 2-hydroxy-4-(2-methylpropyl)-6-(trifluoromethyl)-, dimethyl ester]	2	2	–	1	2	–	2	2	–	–	–	–	–	–	–	–	–	–	0 to 24	0 to 24	plant injury rating, Hese ([1]; 0.0701 kg/ha): 1; plant injury rating, Wibw ([2]; 0.0701 kg/ha): 0; plant injury rating, Vele ([3]; 0.0701 kg/ha): 1; plant injury rating, Rape ([8]; 0.0701 kg/ha): 1; plant injury rating, Cotz ([9]; 0.0701 kg/ha): 0
COC(=O)c1c(OC)nc(C(F)(F)F)c(-c2nnc(C)o2)c1CC(C)C [Compound 103, 3-pyridinecarboxylic acid, 2-methoxy-5-(5-methy1-1,3,4-oxadiazo1-2-yl)-4-(2-methylpropyl)-6-(trifluoromethyl)-, methyl ester]	0	–	3	0	–	2	0	–	2	75 to 100	75 to 100	75 to 100	75 to 100	0	–	3	0	0	75 to 100	75 to 100	plant injury rating, Hese ([1]; 0.0701 kg/ha): 0; plant injury rating, Hese ([1]; 1.1219 kg/ha): 1; plant injury rating, Wibw ([2]; 0.0701 kg/ha): 0; plant injury rating, Wibw ([2]; 1.1219 kg/ha): 1; plant injury rating, Vele ([3]; 0.0701 kg/ha): 0; plant injury rating, Vele ([3]; 1.1219 kg/ha): 0; plant injury rating, Rape ([8]; 0.0701 kg/ha): 0; plant injury rating, Rape ([8]; 1.1219 kg/ha): 1; plant injury rating, Cotz ([9]; 0.0701 kg/ha): 0; plant injury rating, Cotz ([9]; 1.1219 kg/ha): 0
COC(=O)c1c(OC)nc(C(F)(F)F)c(C2SCCS2)c1CC(C)C [Compound 93, 3-pyridinecarboxylic acid, 5-(1,3-dithiolan-2-yl)-2-methoxy-4-(2-methylpropyl)-6-(trifluoromethyl)-, methyl ester]	3	3	3	0	0	0	0	2	3	75 to 100	75 to 100	75 to 100	75 to 100	2	3	3	0	2	75 to 100	75 to 100	plant injury rating, Hese ([1]; 0.0701 kg/ha): 1; plant injury rating, Wibw ([2]; 0.0701 kg/ha): 0; plant injury rating, Vele ([3]; 0.0701 kg/ha): 0; plant injury rating, Rape ([8]; 0.0701 kg/ha): 0; plant injury rating, Cotz ([9]; 0.0701 kg/ha): 0; plant injury rating, Cotz ([9]; 1.1210 kg/ha): 0
COC(=O)c1c(OC)nc(C(F)(F)Cl)c(C(=O)OC)c1CC(C)C [Compound 30, 3,5-pyridinedicarboxylic acid, 2-(chlorodifluoromethyl)-6-methoxy-4-(2-methylpropyl)-, dimethyl ester]	–	1	1	–	1	1	–	1	1	–	–	–	–	–	–	–	–	–	75 to 100	75 to 100	plant injury rating, Hese ([1]; 0.5605 kg/ha): 1; plant injury rating, Hese ([1]; 2.8025 kg/ha): 1; plant injury rating, Hese ([1]; 8.4075 kg/ha): 2; plant injury rating, Hese ([1]; 11.2100 kg/ha): 1; plant injury rating, Wibw ([2]; 0.5605 kg/ha): 1; plant injury rating, Wibw ([2]; 2.8025 kg/ha): 1; plant injury rating, Wibw ([2]; 8.4075 kg/ha): 1; plant injury rating, Wibw ([2]; 11.2100 kg/ha): 2; plant injury rating, Vele ([3]; 0.5605 kg/ha): 1; plant injury rating, Vele ([3]; 2.8025 kg/ha): 1; plant injury rating, Vele ([3]; 8.4075 kg/ha): 2; plant injury rating, Vele ([3]; 11.2100 kg/ha): 1
COC(=O)c1c(OC)nc(C(F)(F)F)c(C2=NCCS2)c1CC(C)C [Compound 50, 3-pyridinecarboxylic acid, 5-(4,5-dihydro-2-thiazolyl)-2-methoxy-4-(2-methylpropyl)-6-(trifluoromethyl)-, methyl ester]	–	–	–	3	–	–	–	–	–	–	–	–	–	–	3	–	2	–	75 to 100	75 to 100	plant injury rating, Hese ([1]; 0.0701 kg/ha): 2; plant injury rating, Hese ([1]; 5.3808 kg/ha): 3; plant injury rating, Wibw ([2]; 0.0701 kg/ha): 1; plant injury rating, Wibw ([2]; 5.3808 kg/ha): 3; plant injury rating, Vele ([3]; 0.0701 kg/ha): 2; plant injury rating, Vele ([3]; 5.3808 kg/ha): 3; plant injury rating, Rape ([8]; 5.3808 kg/ha): 3; plant injury rating, Cotz ([9]; 0.0701 kg/ha): 1; plant injury rating, Cotz ([9]; 5.3808 kg/ha): 3
